Assay results as given in patent US11912701B2, “Protein kinase inhibitors for promoting liver regeneration or reducing or preventing hepatocyte death” (HEPAREGENIX GMBH, priority 2018, dated 2024).

Key:
Assay type in all cases: biochemical
JNK1 = JNK1 (Homo sapiens, UniProt P45983); assay: 33PanQinase enzyme assay, JNK1; parameters: purchased ProQinase GmbH, Freiburg, Germany (33PanQinase Assay Service); settings: ratio IC50(JNK1)/IC50(MKK4)
Experimental: (§1) The kinase activities of the compounds of the invention were measured using the 33PanQinase® Assay Service provided by ProQinase GmbH, Freiburg, Germany. Details of the assay conditions are disclosed on the website of ProQinase (https://www.proginase.com/products-services-biochemical-assay-services/kinase-assays). In brief, all kinase assays were performed in 96-well FlashPlates™ from PerkinElmer (Boston, MA, USA) in a 50 μl reaction volume. The reaction cocktail was pipetted in four steps in the following order: • 20 μl of assay buffer (standard buffer) • 5 μl of ATP solution (in H2O) • 5 μl of test compound (in 10% DMSO) • 20 μl enzyme/subtrate mix
(§2) The reaction cocktails were incubated at 30° C. for 60 minutes. The reaction is stopped with 50 μl of 2% (v/v) H3PO4, plates were aspirated and washed two times with 200 μl 0.9% (w/v) NaCl. Incorporation of ^33Pi was determined with a microplate scintillation counter (Microbeta, Wallac).
(§3) All assays were performed with a BeckmanCoulter/SAGIAN™ Core System.
(§4) In case of single concentration assays, the potency of the test compound is expressed as % residual activity. […] The fitting method used was a least-squares fit.
(§5) Selectivity of test compounds against BRaf, JNK1 and MKK7, altogether denominated as off-targets was calculated by the ratio of IC50 (off-target)/IC50 (MKK4) and categorized as follows: […]

MKK4 = target: T1, MKK4 (Homo sapiens, UniProt P45985); assay: 33PanQinase enzyme assay, MKK4; settings: for IC50: assay 'IC50', read-out: Potency MKK4 (IC50)
T1 construct: purchased ProQinase GmbH, Freiburg, Germany (33PanQinase Assay Service)
T1 sequence (P45985 1-399): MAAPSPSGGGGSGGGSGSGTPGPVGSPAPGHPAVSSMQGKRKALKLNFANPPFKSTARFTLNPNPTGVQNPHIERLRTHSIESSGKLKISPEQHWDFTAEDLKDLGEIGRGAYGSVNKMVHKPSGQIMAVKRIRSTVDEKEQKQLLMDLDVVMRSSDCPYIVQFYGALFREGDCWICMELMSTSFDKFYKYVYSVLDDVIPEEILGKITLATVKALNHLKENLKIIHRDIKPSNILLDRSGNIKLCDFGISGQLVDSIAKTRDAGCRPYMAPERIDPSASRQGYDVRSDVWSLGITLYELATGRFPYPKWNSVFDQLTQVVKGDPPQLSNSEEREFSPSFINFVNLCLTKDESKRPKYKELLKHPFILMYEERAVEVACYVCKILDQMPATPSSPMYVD
Experimental: as §1, §2, §3, §4
Inhibition potency against MKK4 is categorized as follows:
Assay at single concentration (100 nM):

MKK7 = target: T2, MKK7 (Homo sapiens, UniProt O14733); assay: 33PanQinase enzyme assay, MKK7; parameters: purchased ProQinase GmbH, Freiburg, Germany (33PanQinase Assay Service); settings: ratio IC50(MKK7)/IC50(MKK4)
T2 sequence (O14733 1-419): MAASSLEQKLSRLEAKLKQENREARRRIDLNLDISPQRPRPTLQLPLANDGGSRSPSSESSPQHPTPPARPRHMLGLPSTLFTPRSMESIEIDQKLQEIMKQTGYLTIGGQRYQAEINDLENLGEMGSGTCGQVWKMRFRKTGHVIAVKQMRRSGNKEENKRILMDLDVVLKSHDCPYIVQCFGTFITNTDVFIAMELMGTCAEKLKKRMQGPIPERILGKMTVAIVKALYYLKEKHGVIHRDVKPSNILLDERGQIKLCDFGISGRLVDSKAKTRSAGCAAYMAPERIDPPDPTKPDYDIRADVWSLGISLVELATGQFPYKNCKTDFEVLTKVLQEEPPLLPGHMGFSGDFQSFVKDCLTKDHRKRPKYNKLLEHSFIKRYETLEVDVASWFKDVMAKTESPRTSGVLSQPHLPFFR
Experimental: as §1, §2, §3, §4, §5

BRaf = target: T3, BRaf (Homo sapiens, UniProt P15056); assay: 33PanQinase enzyme assay, BRaf; settings: ratio IC50(BRaf)/IC50(MKK4)
T3 construct: purchased ProQinase GmbH, Freiburg, Germany (33PanQinase Assay Service)
T3 sequence (P15056 whole entry, species assumed): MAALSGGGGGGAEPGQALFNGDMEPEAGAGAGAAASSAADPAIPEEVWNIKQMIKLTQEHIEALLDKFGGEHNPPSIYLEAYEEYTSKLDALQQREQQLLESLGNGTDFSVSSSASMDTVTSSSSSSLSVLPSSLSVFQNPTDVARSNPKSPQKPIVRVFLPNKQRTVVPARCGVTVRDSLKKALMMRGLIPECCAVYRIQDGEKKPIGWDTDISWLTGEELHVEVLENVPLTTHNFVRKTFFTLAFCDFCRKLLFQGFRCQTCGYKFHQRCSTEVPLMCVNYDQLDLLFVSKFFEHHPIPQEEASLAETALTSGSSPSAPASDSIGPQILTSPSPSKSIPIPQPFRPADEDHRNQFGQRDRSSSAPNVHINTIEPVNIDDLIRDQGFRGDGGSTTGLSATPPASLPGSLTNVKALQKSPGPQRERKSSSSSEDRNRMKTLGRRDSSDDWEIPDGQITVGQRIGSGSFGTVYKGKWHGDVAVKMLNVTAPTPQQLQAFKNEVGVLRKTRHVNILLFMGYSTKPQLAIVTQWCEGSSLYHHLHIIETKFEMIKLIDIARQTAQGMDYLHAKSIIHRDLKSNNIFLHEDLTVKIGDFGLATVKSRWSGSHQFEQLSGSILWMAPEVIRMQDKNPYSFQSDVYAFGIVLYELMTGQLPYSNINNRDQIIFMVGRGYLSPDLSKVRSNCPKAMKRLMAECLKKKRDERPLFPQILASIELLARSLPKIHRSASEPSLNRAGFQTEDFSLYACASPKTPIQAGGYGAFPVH
Experimental: as §1, §2, §3, §4, §5

JNK1, sequence (P45983 whole entry): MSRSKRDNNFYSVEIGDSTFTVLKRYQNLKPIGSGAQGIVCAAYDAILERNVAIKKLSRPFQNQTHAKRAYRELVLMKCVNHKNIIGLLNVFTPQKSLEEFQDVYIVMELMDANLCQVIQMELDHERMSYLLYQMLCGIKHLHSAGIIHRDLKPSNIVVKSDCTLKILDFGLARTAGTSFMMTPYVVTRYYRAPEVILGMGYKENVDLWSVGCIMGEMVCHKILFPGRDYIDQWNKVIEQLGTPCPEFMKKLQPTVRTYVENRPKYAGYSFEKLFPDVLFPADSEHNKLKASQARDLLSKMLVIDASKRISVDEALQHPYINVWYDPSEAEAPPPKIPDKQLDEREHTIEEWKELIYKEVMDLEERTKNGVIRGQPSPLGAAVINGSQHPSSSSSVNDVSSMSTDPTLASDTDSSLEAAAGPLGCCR

SMILES | Selectivity JNK1, IC50(off-target)/IC50(MKK4) (JNK1) | IC50 (MKK4) | Selectivity IVIKK7, IC50(off-target)/IC50(MKK4) (MKK7) | Selectivity Braf, IC50(off-target)/IC50(MKK4) (BRaf) | remaining activity at 0.1 µM (MKK4; single concentration 100 nM, read-out: Potency MKK4 (residual activity, assay at single concentration))
CCCS(=O)(=O)Nc1ccc(F)c(C(=O)c2c[nH]c3ncc(-c4ccc(S(C)(=O)=O)cc4)cc23)c1F [Example 54] | ◯ (3 ≥ IC50(off-target)/IC50(MKK4)) | 0.1 to 1 µM | +++ (IC50(off-target)/IC50(MKK4) > 100) | ◯ (3 ≥ IC50(off-target)/IC50(MKK4)) | 
CCCS(=O)(=O)Nc1ccc(F)c(C(=O)c2c[nH]c3ncc(-c4ccc(SC)cc4)cc23)c1F [Example 55] | + (10 ≥ IC50(off-target)/IC50(MKK4) > 3) | 0.1 to 1 µM | +++ (IC50(off-target)/IC50(MKK4) > 100) | ◯ (3 ≥ IC50(off-target)/IC50(MKK4)) | 
CCCS(=O)(=O)Nc1ccc(F)c(C(=O)c2c[nH]c3ncc(-c4ccoc4)cc23)c1F [Example 56] | ◯ (3 ≥ IC50(off-target)/IC50(MKK4)) | 0.1 to 1 µM | +++ (IC50(off-target)/IC50(MKK4) > 100) | ◯ (3 ≥ IC50(off-target)/IC50(MKK4)) | 
CCCS(=O)(=O)Nc1ccc(F)c(C(=O)c2c[nH]c3ncc(-c4cscn4)cc23)c1F [Example 57] | ◯ (3 ≥ IC50(off-target)/IC50(MKK4)) | 0.1 to 1 µM | +++ (IC50(off-target)/IC50(MKK4) > 100) | ◯ (3 ≥ IC50(off-target)/IC50(MKK4)) | 
CCCS(=O)(=O)Nc1ccc(F)c(C(=O)c2c[nH]c3ncc(N4CCOCC4)cc23)c1F [Example 70, N-(2,4-difluoro-3-(5-morpholino-1H-pyrrolo[2,3-b]pyridine-3-carbonyl)phenyl)propane-1-sulfonamide] | ++ (100 ≥ IC50(off-target)/IC50(MKK4) > 10) | 0.1 to 1 µM | +++ (IC50(off-target)/IC50(MKK4) > 100) | ◯ (3 ≥ IC50(off-target)/IC50(MKK4)) | 
CCCS(=O)(=O)Nc1ccc(F)c(C(=O)c2c[nH]c3ncc(N4CCNCC4)cc23)c1F [Example 71, N-(2,4-difluoro-3-(5-(piperazin-1-yl)-1H-pyrrolo[2,3-b]pyridine-3-carbonyl)phenyl)propane-1-sulfonamide] | ◯ (3 ≥ IC50(off-target)/IC50(MKK4)) | 1 to 10 µM | ++ (100 ≥ IC50(off-target)/IC50(MKK4) > 10) | ◯ (3 ≥ IC50(off-target)/IC50(MKK4)) | 
CCCS(=O)(=O)Nc1ccc(F)c(C(=O)c2c[nH]c3ncc(-c4ccc(S(=O)(=O)C(F)F)cc4)cc23)c1F [Example 74, N-(3-(5-(4-((difluoromethyl)sulfonyl)phenyl)-1H-pyrrolo[2,3-b]pyridine-3-carbonyl)-2,4-difluorophenyl)propane-1-sulfonamide] | + (10 ≥ IC50(off-target)/IC50(MKK4) > 3) | 0.1 to 1 µM | +++ (IC50(off-target)/IC50(MKK4) > 100) | ◯ (3 ≥ IC50(off-target)/IC50(MKK4)) | 
CCCS(=O)(=O)Nc1ccc(F)c(C(=O)c2c[nH]c3ncc(-c4ccc([S+](C)[O-])cc4)cc23)c1F (stereo not drawn) [Example 75, N-(2,4-difluoro-3-(5-(4-(methylsulfinyl)phenyl)-1H-pyrrolo[2,3-b]pyridine-3-carbonyl)phenyl)propane-1-sulfonamide] | + (10 ≥ IC50(off-target)/IC50(MKK4) > 3) | 0.1 to 1 µM | +++ (IC50(off-target)/IC50(MKK4) > 100) | ◯ (3 ≥ IC50(off-target)/IC50(MKK4)) | 
CCCS(=O)(=O)Nc1ccc(F)c(C(=O)c2c[nH]c3ncc(-c4ccc(SCCN)cc4)cc23)c1F [Example 76, N-(3-(5-(4-((2-aminoethyl)thio)phenyl)-1H-pyrrolo[2,3-b]pyridine-3-carbonyl)-2,4-difluorophenyl)propane-1-sulfonamide] | + (10 ≥ IC50(off-target)/IC50(MKK4) > 3) | 0.1 to 1 µM | +++ (IC50(off-target)/IC50(MKK4) > 100) | ◯ (3 ≥ IC50(off-target)/IC50(MKK4)) | 
CCCS(=O)(=O)Nc1ccc(F)c(C(=O)c2c[nH]c3ncc(-c4ccc(SC(F)(F)F)cc4)cc23)c1F [Example 78, N-(2,4-difluoro-3-(5-(4-((trifluoromethyl)thio)phenyl)-1H-pyrrolo[2,3-b]pyridine-3-carbonyl)phenyl)propane-1-sulfonamide] | + (10 ≥ IC50(off-target)/IC50(MKK4) > 3) | 0.1 to 1 µM | +++ (IC50(off-target)/IC50(MKK4) > 100) | ◯ (3 ≥ IC50(off-target)/IC50(MKK4)) | 
O=C(c1c(F)ccc(NS(=O)(=O)CCC(F)(F)F)c1F)c1c[nH]c2ncc(-c3ccc(N4CCSCC4)nc3)cc12 [Example 80, N-(2,4-difluoro-3-(5-(6-thiomorpholinopyridin-3-yl)-1H-pyrrolo[2,3-b]pyridine-3-carbonyl)phenyl)-3,3,3-trifluoropropane-1-sulfonamide] | ++ (100 ≥ IC50(off-target)/IC50(MKK4) > 10) | < 0.1 µM | +++ (IC50(off-target)/IC50(MKK4) > 100) | ++ (100 ≥ IC50(off-target)/IC50(MKK4) > 10) | 
CCCS(=O)(=O)Nc1ccc(F)c(C(=O)c2c[nH]c3ncc(-c4cnccn4)cc23)c1F [Example 89, N-(2,4-difluoro-3-(5-(pyrazin-2-yl)-1H-pyrrolo[2,3-b]pyridine-3-carbonyl)phenyl)propane-1-sulfonamide] | ◯ (3 ≥ IC50(off-target)/IC50(MKK4)) | 1 to 10 µM | ++ (100 ≥ IC50(off-target)/IC50(MKK4) > 10) | ◯ (3 ≥ IC50(off-target)/IC50(MKK4)) | 
CCCS(=O)(=O)Nc1ccc(F)c(C(=O)c2c[nH]c3ncc(-c4ncccn4)cc23)c1F [Example 90, N-(2,4-difluoro-3-(5-(pyrimidin-2-yl)-1H-pyrrolo[2,3-b]pyridine-3-carbonyl)phenyl)propane-1-sulfonamide] | ◯ (3 ≥ IC50(off-target)/IC50(MKK4)) | 1 to 10 µM | ++ (100 ≥ IC50(off-target)/IC50(MKK4) > 10) | ◯ (3 ≥ IC50(off-target)/IC50(MKK4)) | 
CCCS(=O)(=O)Nc1ccc(F)c(C(=O)c2c[nH]c3ncc(-c4ccc(S(N)(=O)=O)cc4)cc23)c1F [Example 96, 4-(3-(2,6-difluoro-3-(propylsulfonamido)benzoyl)-pyrrolo[2,3-b]pyridin-5-yl)benzenesulfonamide] |  |  |  |  | 50 to 70%
CCCS(=O)(=O)Nc1ccc(F)c(C(=O)c2c[nH]c3ncc(-c4ccc(N)cc4)cc23)c1F [Example 121, N-(3-(5-(4-aminophenyl)-1H-pyrrolo[2,3-b]pyridine-3-carbonyl)-2,4-difluorophenyl)propane-1-sulfonamide] |  | 0.1 to 1 µM |  |  | 
